# Results published in patent publication US10392404B2, “Compounds and compositions as kinase inhibitors” (NOVARTIS AG, priority 2014, dated 2019).
# pIC50: −log10 of the molar value.
# Tests used:
# [1] = molecular target: T1, C-RAF (Homo sapiens, UniProt P04049, Y340E/Y341E); assay: In vitro Raf activity determination (Alpha Screen, biotinylated kinase-dead MEK1 substrate), C-Raf; type: biochemical; conditions: c-Raf approximately 4 nM; ATP 1 μM; pre-incubation 60 minutes; reaction 1 hour at room temperature
# T1 construct: His tag (implied by nickel chromatography) (cleaved yes); StrepII tag (cleaved yes); made in house; host or cells: Sf9 insect cells (baculovirus), CRAF and h14-3-3 zeta co-expressed; MEK1 substrate from E. coli
# Method in brief: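 AlphaScreen read-out of MEK phosphorylation using an anti-phospho-MEK1/2 antibody after a 1 hour room-temperature reaction at 1 μM ATP. Enzyme: approximately 4 nM Sf9-expressed full-length activated C-Raf (Y340E/Y341E, with 14-3-3ζ) on approximately 10 nM biotinylated K97R MEK1, after 60 min compound preincubation. IC50 by non-linear fit.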
# [2] = molecular target: T2, b-Raf (V600E) (Homo sapiens, UniProt P15056, V600E); assay: In vitro Raf activity determination (Alpha Screen, biotinylated kinase-dead MEK1 substrate), B-Raf; type: biochemical; conditions: b-Raf (V600E) approximately 4 pM; ATP 10 μM; pre-incubation 60 minutes; reaction 3 hours at room temperature
# T2 construct: made in house
# Method in brief: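 IC50 from non-linear regression of AlphaScreen phospho-MEK signal (anti-p-MEK1/2 antibody). b-Raf(V600E), about 4 pM, phosphorylated ~10 nM biotinylated K97R MEK1 with 10 μM ATP for 3 h at room temperature after 60 min compound pre-incubation; buffer pH 7.5 Tris, 15 mM MgCl2, 1 mM DTT.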
# T2 sequence (P15056 whole entry V600E): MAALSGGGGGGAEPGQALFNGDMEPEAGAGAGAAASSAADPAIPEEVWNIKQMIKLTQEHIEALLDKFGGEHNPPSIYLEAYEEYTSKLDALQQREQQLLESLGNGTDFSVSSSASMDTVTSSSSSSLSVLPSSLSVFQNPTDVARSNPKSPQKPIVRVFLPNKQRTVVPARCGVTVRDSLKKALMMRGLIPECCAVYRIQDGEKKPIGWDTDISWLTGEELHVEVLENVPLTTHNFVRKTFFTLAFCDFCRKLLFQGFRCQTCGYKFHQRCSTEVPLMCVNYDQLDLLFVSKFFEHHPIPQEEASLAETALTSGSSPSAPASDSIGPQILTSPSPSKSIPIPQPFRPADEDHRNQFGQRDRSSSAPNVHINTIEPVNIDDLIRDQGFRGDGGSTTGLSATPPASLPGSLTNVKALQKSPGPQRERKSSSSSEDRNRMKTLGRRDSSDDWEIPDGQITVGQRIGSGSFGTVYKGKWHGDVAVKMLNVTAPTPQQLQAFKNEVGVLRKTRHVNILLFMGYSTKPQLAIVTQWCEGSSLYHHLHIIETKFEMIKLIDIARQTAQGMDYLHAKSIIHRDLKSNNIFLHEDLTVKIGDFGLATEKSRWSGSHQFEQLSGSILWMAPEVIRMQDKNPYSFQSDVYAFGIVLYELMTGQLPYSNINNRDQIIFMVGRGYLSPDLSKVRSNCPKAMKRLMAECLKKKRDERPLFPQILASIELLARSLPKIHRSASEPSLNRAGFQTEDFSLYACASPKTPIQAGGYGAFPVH
# T1 sequence (P04049 whole entry Y340E/Y341E): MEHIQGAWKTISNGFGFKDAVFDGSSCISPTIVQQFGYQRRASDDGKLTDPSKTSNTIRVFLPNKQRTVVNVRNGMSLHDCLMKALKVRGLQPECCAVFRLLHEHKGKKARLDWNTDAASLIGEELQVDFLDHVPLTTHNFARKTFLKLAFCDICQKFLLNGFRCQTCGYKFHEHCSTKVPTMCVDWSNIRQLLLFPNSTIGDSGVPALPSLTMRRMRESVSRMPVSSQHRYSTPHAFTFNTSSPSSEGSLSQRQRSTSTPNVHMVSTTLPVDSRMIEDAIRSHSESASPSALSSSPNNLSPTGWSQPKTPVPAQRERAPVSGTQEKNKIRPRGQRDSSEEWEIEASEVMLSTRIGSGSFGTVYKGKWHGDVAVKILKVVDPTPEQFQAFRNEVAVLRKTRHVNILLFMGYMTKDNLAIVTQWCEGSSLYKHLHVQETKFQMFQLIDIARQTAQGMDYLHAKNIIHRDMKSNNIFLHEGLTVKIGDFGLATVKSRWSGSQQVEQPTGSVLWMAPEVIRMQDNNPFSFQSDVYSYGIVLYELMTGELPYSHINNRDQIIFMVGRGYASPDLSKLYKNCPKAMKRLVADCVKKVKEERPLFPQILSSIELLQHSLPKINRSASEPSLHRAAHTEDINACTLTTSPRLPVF
# T1 sequence (P63104 whole entry partner): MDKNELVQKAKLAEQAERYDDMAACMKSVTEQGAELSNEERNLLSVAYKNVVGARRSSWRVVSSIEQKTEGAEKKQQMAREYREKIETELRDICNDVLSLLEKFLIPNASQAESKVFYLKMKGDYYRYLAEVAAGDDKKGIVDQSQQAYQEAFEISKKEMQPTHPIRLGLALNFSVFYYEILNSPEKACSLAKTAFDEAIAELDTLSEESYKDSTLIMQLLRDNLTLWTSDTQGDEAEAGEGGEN
pIC50 [1],pIC50 [2],SMILES
8.50,7.91,"Cc1ncc(NC(=O)c2ccnc(C(C)(C)C#N)c2)cc1-c1cnc(NC2CCOC2)c(C#N)c1 (stereo in doubt) [Example 78a, (S)-N-(5′-cyano-2-methyl-6′-((tetrahydrofuran-3-yl)amino)-[3,3′-bipyridin]-5-yl)-2-(2-cyanopropan-2-yl)isonicotinamide]"
8.99,8.47,"Cc1ncc(NC(=O)c2ccnc(C(C)(C)C#N)c2)cc1-c1cnc(N2CCOC(C)(C)C2)c(C#N)c1 [Example 89, N-(5′-cyano-6′-(2,2-dimethylmorpholino)-2-methyl-[3,3′-bipyridin]-5-yl)-2-(2-cyanopropan-2-yl)isonicotinamide]"
7.96,7.21,"Cc1ncc(NC(=O)c2ccnc(C(C)(C)O)c2)cc1-c1cnc(N2CC(C)(O)C2)c(C#N)c1 [Example 185, N-(5′-cyano-6′-(3-hydroxy-3-methylazetidin-1-yl)-2-methyl-[3,3′-bipyridin]-5-yl)-2-(2-hydroxypropan-2-yl)isonicotinamide]"
7.90,7.12,"Cc1ncc(NC(=O)c2cnnc(C(F)(F)F)c2)cc1-c1cnc(C2CCOCC2)c(C#N)c1 [Example 144, N-(5′-cyano-2-methyl-6′-(tetrahydro-2H-pyran-4-yl)-[3,3′-bipyridin]-5-yl)-6-(trifluoromethyl) pyridazine-4-carboxamide]"
9.16,8.65,"Cc1ccc(NC(=O)c2cc(C(C)(C)O)ccn2)cc1-c1cnc(N2CCOCC2)c(C#N)c1 [Example 237, N-(3-(5-cyano-6-morpholinopyridin-3-yl)-4-methylphenyl) 4-(2-hydroxypropan-2-yl)picolinamide]"
8.13,7.23,"Cc1ncc(NC(=O)c2ccnc(C(F)F)c2)cc1-c1cnc(N2CC(C)(O)C2)c(C#N)c1 [Example 182, N-(5′-cyano-6′-(3-hydroxy-3-methylazetidin-1-yl)-2-methyl-[3,3′-bipyridin]-5-yl)-2-(difluoromethyl) isonicotinamide]"
8.71,7.90,"Cc1ncc(NC(=O)c2ccnc(C(C)(C)C#N)c2)cc1-c1cnc(NC2COC2)c(C#N)c1 [Example 80, N-(5′-cyano-2-methyl-6′-(oxetan-3-ylamino)-[3,3′-bipyridin]-5-yl)-2-(2-cyanopropan-2-yl)isonicotinamide]"
8.45,7.75,"Cc1ncc(NC(=O)c2ccnc(C(F)(F)F)c2)cc1-c1cnc(-c2c(C)nn(C)c2C)c(C#N)c1 [Example 112, N-(5′-cyano-2-methyl-6′-(1,3,5-trimethyl-1H-pyrazol-4-yl)-[3,3′-bipyridin]-5-yl)-2-(trifluoromethyl) isonicotinamide]"
9.75,9.24,"Cc1ccc(NC(=O)c2cnnc(C(F)(F)F)c2)cc1-c1cnc(NC2CCOCC2)c(C#N)c1 [Example 174, N-(3-(5-cyano-6-((tetrahydro-2H-pyran-4-yl)amino)pyridin-3-yl)-4-methylphenyl)-6-(trifluoromethyl) pyridazine-4-carboxamide]"
8.57,7.84,"Cc1ncc(NC(=O)c2ccnc(C(C)(C)C#N)c2)cc1-c1cnc(N2CC(O)C2)c(C#N)c1 [Example 65, N-(5′-cyano-6′-(3-hydroxyazetidin-1-yl)-2-methyl-[3,3′-bipyridin]-5-yl)-2-(2-cyanopropan-2-yl)isonicotinamide]"
8.16,7.46,"Cc1ccc(NC(=O)c2ccnc(C(C)(C)C#N)c2)cc1-c1cnc(-n2ccc(=O)cc2)c(C#N)c1 [Example 120, N-(3-(3′-cyano-4-oxo-4H-[1,2′-bipyridin]-5′-yl)-4-methylphenyl)-2-(2-cyanopropan-2-yl)isonicotinamide]"
8.09,7.49,"Cc1ncc(NC(=O)c2ccnc(C(C)(C)C#N)c2)cc1-c1cnc(-c2c(C)nn(C)c2C)c(C#N)c1 [Example 114, N-(5′-cyano-2-methyl-6′-(1,3,5-trimethyl-1H-pyrazol-4-yl)-[3,3′-bipyridin]-5-yl)-2-(2-cyanopropan-2-yl)isonicotinainide]"
9.82,8.93,"Cc1ccc(NC(=O)c2cccc(C(F)(F)F)c2)cc1-c1cnc(-c2cnn(C)c2)c(C#N)c1 [Example 123, N-(3-(5-cyano-6-(1-methyl-1H-pyrazol-4-yl)pyridin-3-yl)-4-methylphenyl)-3-(trifluoromethyl) benzamide]"
9.31,8.70,"Cc1ccc(NC(=O)c2cc(C(F)(F)F)ccn2)cc1-c1cnc(N2CC(C)(O)C2)c(C#N)c1 [Example 224, N-(3-(5-cyano-6-(3-hydroxy-3-methylazetidin-1-yl)pyridin-3-yl)-4-methylphenyl)-4-(trifluoromethyl) picolinamide]"
5.63,4.82,"Cc1ccc(NC(=O)c2ccccc2)cc1-c1cncc(C#N)c1 [Example 149, N-(3-(5-cyanopyridin-3-yl)-4-methylphenyl) benzamide]"
9.66,8.84,"Cc1ccc(NC(=O)c2cnnc(C(C)(C)C#N)c2)cc1-c1cnc(NC2CCOCC2)c(C#N)c1 [Example 204, N-(3-(5-cyano-6-((tetrahydro-2H-pyran-4-yl)amino)pyridin-3-yl)-4-methylphenyl)-6-(2-cyanopropan-2-yl)pyridazine-4-carboxamide]"
9.23,8.39,"COCCNc1ncc(-c2cc(NC(=O)c3cnnc(C(F)(F)F)c3)ccc2C)cc1C#N [Example 179, N-(3-(5-cyano-6-((2-methoxyethyl)amino)pyridin-3-yl)-4-methylphenyl)-6-(trifluoromethyl) pyridazine-4-carboxamide]"
9.90,9.05,"Cc1ccc(NC(=O)c2ccnc(C(F)(F)F)c2)cc1-c1cnc(N(C)C)c(C#N)c1 [Example 25, N-(3-(5-cyano-6-(dimethylamino)pyridin-3-yl)-4-methylphenyl)-2-(trifluoromethyl) isonicotinamide]"
8.90,8.32,"Cc1ncc(NC(=O)c2cnnc(C(F)(F)F)c2)cc1-c1cnc(NC2CCOCC2)c(C#N)c1 [Example 175, N-(5′-cyano-2-methyl-6′-((tetrahydro-2H-pyran-4-yl)amino)-[3,3′-bipyridin]-5-yl)-6-(trifluoromethyl) pyridazine-4-carboxamide]"
8.67,7.79,"COCCNc1ncc(-c2cc(NC(=O)c3ccnc(C(F)F)c3)cnc2C)cc1C#N [Example 196, N-(5′-cyano-6′-((2-methoxyethyl)amino)-2-methyl-[3,3′-bipyridin]-5-yl)-2-(difluoromethyl) isonicotinamide]"
8.63,7.94,"Cc1ncc(NC(=O)c2ccnc(C(C)(C)C#N)c2)cc1-c1cnc(N2CCS(=O)(=O)CC2)c(C#N)c1 [Example 55, N-(5′-cyano-6′-(1,1-dioxidothiomorpho-lino)-2-methyl-[3,3′-bipyridin]-5-yl)-2-(2-cyanopropan-2-yl)isonicotinamide]"
8.75,8.06,Cc1ccc(NC(=O)c2cnnc(C(F)(F)F)c2)cc1-c1cnc(N2CC(C)(O)C2)c(C#N)c1 [Example 213]
9.23,8.44,"CCn1cc(C(=O)Nc2ccc(C)c(-c3cnc(N4CC(C)(O)C4)c(C#N)c3)c2)cc(C(F)(F)F)c1=O [Example 221, N-(3-(5-cyano-6-(3-hydroxy-3-methylazetidin-1-yl)pyridin-yl)-4-methylphenyl)-1-ethyl-6-oxo-5-(trifluoromethyl)-1,6-dihydropyridine-3-carboxamide]"
8.81,8.05,"Cc1ncc(NC(=O)c2ccnc(C(C)(C)C#N)c2)cc1-c1cnc(N2CCC2)c(C#N)c1 [Example 76, N-(6′-(azetidin-1-yl)-5′-cyano-2-methyl-[3,3′-bipyridin]-5-yl)-2-(2-cyanopropan-2-yl)isonicotinamide]"
9.74,8.88,"CNc1ncc(-c2cc(NC(=O)c3cccc(C(F)(F)F)c3)ccc2C)cc1C#N [Example 5, N-(3-(5-cyano-6-(methylamino)pyridin-3-yl)-4-methylphenyl)-3-(trifluoromethyl) benzamide]"
7.42,6.56,"Cc1cc(C(=O)Nc2ccc(C)c(-c3cnc(N(C)C)c(C#N)c3)c2)n(C)n1 [Example 254, N-(3-(5-cyano-6-(dimethylamino)pyridin-3-yl)-4-methylphenyl)-1,3-dimethyl-1H-pyrazole-5-carboxamide]"
8.75,7.82,"Cc1ncc(NC(=O)c2ccnc(C(C)(C)C#N)c2)cc1-c1cnc(N(C)C)c(C#N)c1 [Example 26, N-(5′-cyano-6′-(dimethylamino)-2-methyl-[3,3′-bipyridin]-5-yl)-2-(2-cyanopropan-2-yl)isonicotinamide]"
9.34,8.59,"Cc1ncc(NC(=O)c2ccnc(C(F)(F)F)c2)cc1-c1cnc(N2CC(O)C2)c(C#N)c1 [Example 69, N-(5′-cyano-6′-(3-hydroxyazetidin-1-yl)-2-methyl-[3,3′-bipyridin]-5-yl)-2-(trifluoromethyl) isonicotinamide]"
9.48,8.69,"Cc1ncc(NC(=O)c2ccnc(C(C)C)c2)cc1-c1cnc(N2CCOCC2)c(C#N)c1 [Example 133, N-(5′-cyano-2-methyl-6′-morpholino-[3,3′-bipyridin]-5-yl)-2-isopropyl-isonicotinamide]"
